Assay results reported in patent publication US20070270484A1, “3'-N-Substituted-3-O-Substituted Erythronolide a Derivatives” (priority 2003, published 2007).
Values after ≈ are worked out from the molar mass of the structure shown.

Assays:
[1] = system: MoraXella MI; experiment: MIC, agar incorporation method (NCCLS agar dilution method); format: cell-based; settings: 18-24 hours, 35±2° C.
Description: (§1) Drug dilutions and the agar plates are prepared by NCCLS method. Inoculum is prepared by direct colony suspensions in normal saline and adjusted to 0.5 McFarland turbidity and subsequently diluted as per NCCLS guidelines in order to obtain 10^4 CFU/spot. CFU/ml of a few randomly selected cultures is performed. The cultures are replicated on the agar plates using replicator (Denley's multipoint). The plates are incubated at 35±2° C. and in 5% CO2 atmosphere (for respiratory and Haemophilus strains) for 18-24 hours at 35±2° C. Minimum inhibitory concentrations (MIC) are determined after 18-24 hours. Q. C. strains are also included in each run of the study. The cation content of Mueller Hinton agar is checked by performing disk […] of 10 μg gentamicin disk against Pseudomonas aeroginosa ATCC 27853. The zone of inhibition should fall between 16-21 mm. The concentration of drug at which there is complete disappearance of growth spot or formation of less than 10 colonies per spot is considered as MIC.

[2] = system: S. pneum AB 34 (mef); experiment: as above; format: cell-based, streptococcus pneumoniae; settings: 18-24 hours, 35±2° C., 5% CO2, mef: efflux pump mef genes
Description: as §1

[3] = system: S. pneum ATCC 6303; experiment: as above; format: cell-based, streptococcus pneumoniae; settings: 18-24 hours, 35±2° C., 5% CO2
Description: as §1

[4] = system: S. pneum 1251 (mef); experiment: as above; format: cell-based, streptococcus pneumoniae; settings: 18-24 hours, 35±2° C., 5% CO2, mef: efflux pump mef genes
Description: as §1

[5] = system: S. pneum CS 1687 (mef); experiment: as above; format: cell-based, streptococcus pneumoniae; settings: 18-24 hours, 35±2° C., 5% CO2, mef: efflux pump mef genes
Description: as §1

[6] = system: S. pneum ATCC 49619; experiment: as above; format: cell-based, streptococcus pneumoniae; settings: 35±2° C.; for Minimum Inhibitory Concentrations, S. pneum ATCC 49619: 18-24 hours, 5% CO2
Description: as §1

[7] = system: S. pneum AB 14 (erm); experiment: microbe, parasite or virus in culture; format: cell-based, streptococcus pneumoniae; settings: for Minimum Inhibitory Concentrations, S. pneum AB 14 (erm): agar dilution, 18-24 hours, 35±2° C., 5% CO2, erm: ribosomal modification (mutation) erm genes
Description: as §1

[8] = system: S. pneum 1294 (mef); experiment: microbe, parasite or virus in culture; format: cell-based, streptococcus pneumoniae; settings: agar dilution, 18-24 hours, 35±2° C., 5% CO2; mef: efflux pump mef genes
Description: as §1

[9] = system: S. pneum AB 29 (erm); experiment: microbe, parasite or virus in culture; format: cell-based, streptococcus pneumoniae; settings: agar dilution, 18-24 hours, 35±2° C., 5% CO2; erm: ribosomal modification (mutation) erm genes
Description: as §1

[10] = system: S. pneum 1275 (erm); experiment: microbe, parasite or virus in culture; format: cell-based, streptococcus pneumoniae; settings: for Minimum Inhibitory Concentrations, S. pneum 1275 (erm): agar dilution, 18-24 hours, 35±2° C., 5% CO2, erm: ribosomal modification (mutation) erm genes
Description: as §1

[11] = system: S. pneum 1256 (erm); experiment: microbe, parasite or virus in culture; format: cell-based, streptococcus pneumoniae; settings: agar dilution, 18-24 hours, 35±2° C., 5% CO2; erm: ribosomal modification (mutation) erm genes
Description: as §1

[12] = system: S. pneum AB 30 (erm); experiment: microbe, parasite or virus in culture; format: cell-based, streptococcus pneumoniae; settings: agar dilution, 18-24 hours, 35±2° C., 5% CO2; erm: ribosomal modification (mutation) erm genes
Description: as §1

[13] = system: H. inflenza ATCC 49247; experiment: MIC, agar incorporation method (NCCLS agar dilution method); format: cell-based, Haemophilus influenzae; settings: agar dilution, 18-24 hours, 35±2° C., 5% CO2
Description: Minimum inhibitory concentrations (μg/ml) were obtained for representative compounds of the invention, which are given in Table 2.
as §1

Molecule	Minimum Inhibitory Concentrations, MoraXella MI [1] [µg/mL]	Minimum Inhibitory Concentrations, S. pneum AB 34 (mef) [2] [µg/mL]	Minimum Inhibitory Concentrations, S. pneum ATCC 6303 [3] [µg/mL]	Minimum Inhibitory Concentrations, S. pneum 1251 (mef) [4] [µg/mL]	Minimum Inhibitory Concentrations, S. pneum CS 1687 (mef) [5] [µg/mL]	Minimum Inhibitory Concentrations, S. pneum ATCC 49619 [6] [µg/mL]	Minimum Inhibitory Concentrations, S. pneum AB 14 (erm) [7] [µg/mL]	Minimum Inhibitory Concentrations, S. pneum 1294 (mef) [8] [µg/mL]	Minimum Inhibitory Concentrations, S. pneum AB 29 (erm) [9] [µg/mL]	Minimum Inhibitory Concentrations, S. pneum 1275 (erm) [10] [µg/mL]	Minimum Inhibitory Concentrations, S. pneum 1256 (erm) [11] [µg/mL]	Minimum Inhibitory Concentrations, S. pneum AB 30 (erm) [12] [µg/mL]	Minimum Inhibitory Concentrations, H. inflenza ATCC 49247 [13] [µg/mL]	MIC ([1]; Moraxella, read-out: Minimum Inhibitory Concentrations, MoraXella MI) [µg/mL]	MIC ([6]; Streptococcus pneumoniae, ATCC49619, 18-24 hours, 5% CO2, read-out: Minimum Inhibitory Concentrations, S. pneum ATCC 49619) [µg/mL]	MIC ([7]; Streptococcus pneumoniae, read-out: Minimum Inhibitory Concentrations, S. pneum AB 14 (erm)) [µg/mL]	MIC ([10]; Streptococcus pneumoniae, read-out: Minimum Inhibitory Concentrations, S. pneum 1275 (erm)) [µg/mL]
CCC1OC(=O)C(C)C(OC(=O)Cc2ccc(F)cc2)C(C)C(OC2OC(C)CC(N(C)Cc3ccc([N+](=O)[O-])cc3)C2O)C(C)(OC)CC(C)C(=O)C(C)C(O)C1(C)O (stereo not shown) [Compound No. 24, 3-O-(4-Fluorophenyl)acetyl-5-O-(3′-N-desmethyl-3′-N-(4-nitro)benzyl)desosaminyl-6-O-methyl erythronolide A]	2	>16	0.5	1	0.5	0.5	8	2	>16	>16	>16	>16	–	–	–	–	–
3-O-(3-Fluorophenyl)acetyl-5-O-(3′-N-desmethyl-3′-N-allyl)desosaminyl-6-O-methyl erythronolide A [Compound No. 19]	16	16	2	2	2	2	>16	4	2	>16	>16	>16	–	–	–	–	–
CCC1OC(=O)C(C)C(OC(=O)Cc2ccc3ccccc3c2)C(C)C(OC2OC(C)CC(N(C)Cc3ccccc3)C2O)C(C)(OC)CC(C)C(=O)C(C)C(O)C1(C)O (stereo not shown) [Compound No. 73, 3-O-(2-Naphthyl)acetyl-5-O-(3′-N-desmethyl-3′-N-benzyl) desosaminyl-6-O-methyl erythronolide A]	16	>16	1	2	2	2	>16	>16	>16	>16	>16	>16	–	–	–	–	–
CCC1OC(=O)C(C)C(OC(=O)Cc2ccccc2F)C(C)C(OC2OC(C)CC(N(C)Cc3ccc(F)cc3)C2O)C(C)(OC)CC(C)C(=O)C(C)C(O)C1(C)O (stereo not shown) [Compound No. 5, 3-O-(2-Fluorophenyl)acetyl-5-O-[3′-N-desmethyl-3′-N-(4-fluoro)benzyl]desosaminyl-6-O-methyl erythronolide A]	>8	>8	2	2	2	2	>8	2	–	>16	>8	>8	>128	–	–	–	–
3-O-(4-Fluorophenyl)acetyl-5-O-(3′-N-desmethyl-3′-N-allyl)desosaminyl-6-O-methyl erythronolide A [Compound No. 20]	16	>16	0.5	1	1	0.25	>16	1	–	>16	16	>16	>16	–	–	–	–
3-O-(3-Fluorophenyl)acetyl-5-O-[3′-N-desmethyl-3′-N-cyclopropyl)desosaminyl-6-O-methyl erythronolide A [Compound No. 16]	>16	>16	1	8	4	4	>16	1	–	>16	16	>16	>16	–	–	–	–
CCC[C@@H]1C[C@@H](C(=O)N[C@@H]([C@H]2O[C@H](SC)[C@H](O)[C@@H](O)[C@H]2O)[C@H](C)Cl)N(C)C1 [Cl, Clindamycin, reference compound]	–	–	–	–	–	–	–	–	–	–	–	–	–	2 (≈ 4.71 µM)	0.015 (≈ 0.0353 µM)	> 16	> 16
3-O-(3-Fluorophenyl)acetyl-5-O-(3′-N-desmethyl-3′-N-propargyl)desosaminyl-6-O-methyl erythronolide A [Compound No. 22]	4	>16	0.5	4	1	0.5	>16	4	–	>16	>16	>16	>16	–	–	–	–
